Assay results published in ChEMBL document CHEMBL1201862, “PubChem BioAssay data set” (2004).
Active and inactive are the calls of the source.

How the values were obtained:
[1] = target: T1, Polyadenylate-binding protein 1 (Homo sapiens, UniProt P11940); assay: MLLE binding blockers, Cy5 peptide tracer – biochemical, fluorescence polarization, Cy5-PAM2 peptide, secondary, miRNA deadenylation inhibitor project, dose response (AID 602260); type: functional; conditions: read-out: IC50_Mean
[2] = target: T1, Polyadenylate-binding protein 1; assay: MLLE domain peptide-binding blockers, IC50 – biochemical, fluorescence polarization, FITC-PAM2 peptide, dose response (AID 602259); type: functional; conditions: read-out: IC50_Mean
[3] = target: Paired box protein Pax-8 (Homo sapiens, UniProt Q06710); assay: PAX8 transcriptional activity inhibition in RMG-I – RMG-I cells, luciferase, cherry-pick, dose response (AID 687027); type: functional, cell-based;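 further: luciferase reporter driven by Pax8 target thyroperoxidase promoter measured by SteadyGlo luminescence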
Paired box protein Pax-8, sequence (Q06710 whole entry, the tested form may be a part): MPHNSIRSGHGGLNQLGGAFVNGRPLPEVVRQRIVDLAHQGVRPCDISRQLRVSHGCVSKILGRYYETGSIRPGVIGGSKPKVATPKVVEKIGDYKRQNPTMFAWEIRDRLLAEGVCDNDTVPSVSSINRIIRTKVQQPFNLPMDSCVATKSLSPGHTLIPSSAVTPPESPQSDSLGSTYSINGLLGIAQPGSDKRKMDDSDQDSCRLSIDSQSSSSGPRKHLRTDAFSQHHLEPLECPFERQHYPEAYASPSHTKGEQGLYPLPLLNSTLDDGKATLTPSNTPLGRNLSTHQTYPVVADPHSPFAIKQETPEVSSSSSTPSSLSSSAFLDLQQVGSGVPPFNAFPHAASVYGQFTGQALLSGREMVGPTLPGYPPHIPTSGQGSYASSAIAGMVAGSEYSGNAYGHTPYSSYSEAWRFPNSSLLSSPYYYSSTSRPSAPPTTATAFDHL

[4] = blockers of HIV-1 envelope-mediated cell-cell fusion – cherry-pick, dose response (AID 652057); type: functional, cell-based
[5] = blockers of HIV-1 ZM109 envelope-driven cell-cell fusion – HeLa effector, CEM target cells, luciferase, cherry-pick, dose response (AID 652058); type: functional, cell-based;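 further: luciferase signal from HIV-1 Env mediated cell-cell fusion of effector and target cells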
[6] = off-target signal loss in HeLa-CEM21 co-culture – HeLa F-luc CTL cells, cherry-picked, counter-screen for HIV-1 Env fusion inhibitor project, dose response (AID 652040); type: functional, cell-based;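 further: potency for signal decrease marking cytotoxic or nonspecific inhibition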
[7] = HIV-1 AD8 envelope cell-cell fusion blockers – cherry-pick, dose response (AID 652062); type: functional, cell-based;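 further: luciferase signal from cell-cell fusion driven by HIV-1 clade B AD8 Env; potency is for inhibitors of fusion seen as a drop in luminescence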
[8] = target: T2, Aminopeptidase N (Plasmodium falciparum FcB1/Columbia, UniProt O96935); assay: malaria alanyl aminopeptidase activity blockers – biochemical, fluorogenic H-Leu-NHMec substrate, 1536-well (AID 1445); parameters: species or system Plasmodium falciparum 3D7, 3D7
T2 sequence (O96935 whole entry): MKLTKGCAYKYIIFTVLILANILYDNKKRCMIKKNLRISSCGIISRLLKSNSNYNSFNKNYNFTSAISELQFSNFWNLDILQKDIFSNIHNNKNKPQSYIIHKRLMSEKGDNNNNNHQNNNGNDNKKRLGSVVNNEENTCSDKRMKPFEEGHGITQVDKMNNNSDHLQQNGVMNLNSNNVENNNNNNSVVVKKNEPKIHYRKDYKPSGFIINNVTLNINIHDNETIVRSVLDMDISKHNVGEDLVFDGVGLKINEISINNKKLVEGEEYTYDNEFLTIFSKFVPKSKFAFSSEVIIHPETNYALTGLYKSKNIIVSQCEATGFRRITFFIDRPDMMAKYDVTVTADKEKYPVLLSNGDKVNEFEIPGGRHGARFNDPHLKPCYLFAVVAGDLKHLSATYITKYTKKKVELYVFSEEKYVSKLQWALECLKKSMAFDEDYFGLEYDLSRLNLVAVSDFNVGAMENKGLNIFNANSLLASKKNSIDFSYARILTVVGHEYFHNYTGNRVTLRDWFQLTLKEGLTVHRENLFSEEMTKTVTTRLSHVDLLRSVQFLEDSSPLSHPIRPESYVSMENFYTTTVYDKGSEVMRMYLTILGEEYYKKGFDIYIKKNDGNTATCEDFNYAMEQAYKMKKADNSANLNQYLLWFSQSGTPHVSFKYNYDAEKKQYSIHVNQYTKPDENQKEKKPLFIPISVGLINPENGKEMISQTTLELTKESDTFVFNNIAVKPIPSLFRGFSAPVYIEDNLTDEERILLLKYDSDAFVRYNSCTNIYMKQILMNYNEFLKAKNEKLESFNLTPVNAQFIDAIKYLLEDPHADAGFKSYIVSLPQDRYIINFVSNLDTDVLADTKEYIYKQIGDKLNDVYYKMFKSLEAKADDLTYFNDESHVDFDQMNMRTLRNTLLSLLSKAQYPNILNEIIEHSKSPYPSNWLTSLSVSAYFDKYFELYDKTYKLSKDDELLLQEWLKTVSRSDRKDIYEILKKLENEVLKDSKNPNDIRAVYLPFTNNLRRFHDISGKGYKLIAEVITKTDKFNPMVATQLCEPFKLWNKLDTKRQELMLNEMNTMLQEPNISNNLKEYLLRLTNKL

[9] = tested on: HEK293; assay: EBV LMP1 TES2 canonical NF-kB signalling blockers – cell-based, HEK293, luciferase, cherry-pick, dose response (AID 588343); type: functional; conditions: Homo sapiens
[10] = tested on: Vero; assay: cells; type: functional; conditions: Chlorocebus sabaeus
[11] = luciferase reporter signal suppression in cells – H4 neuroglioma cells, luminescence, dose response (AID 1990); type: functional, cell-based
[12] = Luminescence Cell-Based Dose Response HTS to Identify Inhibitors of 5'UTR Stem-Loop Driven Prion Protein mRNA Translation in H4 Neuroglioblastoma Cells. [Related pubchem assays: 1827 (Project Summary), 1813 (Primary HTS)]; type: functional
[13] = target: Beta-galactosidase (Escherichia coli, UniProt Q8VNN2); assay: PubChem AID 485352; type: functional
Beta-galactosidase, sequence (Q8VNN2 whole entry): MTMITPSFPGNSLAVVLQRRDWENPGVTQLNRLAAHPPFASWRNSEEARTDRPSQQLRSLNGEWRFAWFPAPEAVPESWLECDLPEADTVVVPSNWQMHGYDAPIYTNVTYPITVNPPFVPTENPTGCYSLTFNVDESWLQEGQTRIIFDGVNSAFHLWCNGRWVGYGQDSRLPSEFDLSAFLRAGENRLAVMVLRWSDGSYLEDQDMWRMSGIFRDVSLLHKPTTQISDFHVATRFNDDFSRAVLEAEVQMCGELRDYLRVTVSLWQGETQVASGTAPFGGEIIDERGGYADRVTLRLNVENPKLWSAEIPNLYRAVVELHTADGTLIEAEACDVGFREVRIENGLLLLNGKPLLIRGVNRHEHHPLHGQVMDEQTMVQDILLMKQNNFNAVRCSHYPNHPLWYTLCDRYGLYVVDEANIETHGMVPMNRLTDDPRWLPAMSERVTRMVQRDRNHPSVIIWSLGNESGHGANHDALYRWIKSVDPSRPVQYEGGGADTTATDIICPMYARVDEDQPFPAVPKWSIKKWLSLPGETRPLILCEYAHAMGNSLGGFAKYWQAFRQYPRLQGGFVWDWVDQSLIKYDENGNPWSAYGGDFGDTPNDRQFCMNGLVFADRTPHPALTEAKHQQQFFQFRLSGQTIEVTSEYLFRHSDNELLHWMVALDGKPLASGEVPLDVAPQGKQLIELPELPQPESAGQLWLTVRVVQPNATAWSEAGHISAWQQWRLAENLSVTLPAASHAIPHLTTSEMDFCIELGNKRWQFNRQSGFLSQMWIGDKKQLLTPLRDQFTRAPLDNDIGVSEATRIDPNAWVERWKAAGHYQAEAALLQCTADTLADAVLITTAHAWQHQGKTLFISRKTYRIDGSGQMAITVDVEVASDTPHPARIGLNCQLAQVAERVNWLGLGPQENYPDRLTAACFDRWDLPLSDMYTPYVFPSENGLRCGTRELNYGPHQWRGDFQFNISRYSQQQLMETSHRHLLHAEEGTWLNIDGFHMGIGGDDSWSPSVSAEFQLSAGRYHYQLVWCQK

[14] = alpha-synuclein stem-loop luciferase translation blockers – H4 neuroglioma cells, luminescence, confirmation (AID 1988); type: functional, cell-based
[15] = target: T3, Type-1 angiotensin II receptor (Homo sapiens, UniProt P30556); assay: antagonism of angiotensin II type 1 receptor – cell-based, uHTS hits, selectivity assay for APJ receptor antagonist project, dose response (AID 463214); type: functional;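 further: antagonist potency against angiotensin II stimulated AT1 response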
T3 sequence (P30556 whole entry): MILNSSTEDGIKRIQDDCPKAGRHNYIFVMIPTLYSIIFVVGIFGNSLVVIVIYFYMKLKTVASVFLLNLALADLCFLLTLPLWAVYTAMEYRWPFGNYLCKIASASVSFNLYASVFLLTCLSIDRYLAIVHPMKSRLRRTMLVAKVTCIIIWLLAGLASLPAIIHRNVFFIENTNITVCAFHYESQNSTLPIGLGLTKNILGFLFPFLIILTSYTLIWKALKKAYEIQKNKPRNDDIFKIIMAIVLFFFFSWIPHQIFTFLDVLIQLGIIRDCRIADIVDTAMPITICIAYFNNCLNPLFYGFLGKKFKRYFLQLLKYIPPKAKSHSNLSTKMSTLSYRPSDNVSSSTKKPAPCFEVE

[16] = reduction of Shn3 3'UTR-driven luciferase in osteoblasts – cell-based, Clone20 osteoblasts, firefly luciferase, cherry-picked, dose response (AID 624132); type: functional;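 further: firefly luciferase luminescence from reporter carrying the Shn3 3'UTR in osteoblasts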
[17] = loss of viability in HepG2 cells – cell-based, CellTiter-Glo, cherry-picked, cytotoxicity control for Shn3 inhibitor project, dose response (AID 624134); type: functional
[18] = non-specific 3'UTR reporter inhibition in Clone20-Shn3RL – cell-based, Renilla luciferase, cherry-picked, counter-screen for Shn3 inhibitor project, dose response (AID 624133); type: functional
[19] = target: Induced myeloid leukemia cell differentiation protein Mcl-1 (Homo sapiens, UniProt Q07820); type: functional
Induced myeloid leukemia cell differentiation protein Mcl-1, sequence (Q07820 whole entry): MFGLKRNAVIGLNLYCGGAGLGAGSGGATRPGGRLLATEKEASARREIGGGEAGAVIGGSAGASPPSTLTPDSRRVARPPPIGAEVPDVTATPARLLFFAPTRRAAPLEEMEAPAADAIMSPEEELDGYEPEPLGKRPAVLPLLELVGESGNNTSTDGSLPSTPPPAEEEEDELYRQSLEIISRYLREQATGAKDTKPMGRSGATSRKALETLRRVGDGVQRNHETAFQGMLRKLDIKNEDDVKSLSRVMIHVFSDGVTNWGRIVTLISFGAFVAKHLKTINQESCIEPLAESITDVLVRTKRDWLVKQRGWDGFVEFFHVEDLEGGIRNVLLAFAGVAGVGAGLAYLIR

[20] = target: T4, Replicative DNA helicase DnaB (Mycobacterium tuberculosis, UniProt P9WMR3); assay: DnaB intein splicing inhibitors, dose response, biochemical, cell-free fluorescence (AID 449749); type: functional
T4 sequence (P9WMR3 whole entry): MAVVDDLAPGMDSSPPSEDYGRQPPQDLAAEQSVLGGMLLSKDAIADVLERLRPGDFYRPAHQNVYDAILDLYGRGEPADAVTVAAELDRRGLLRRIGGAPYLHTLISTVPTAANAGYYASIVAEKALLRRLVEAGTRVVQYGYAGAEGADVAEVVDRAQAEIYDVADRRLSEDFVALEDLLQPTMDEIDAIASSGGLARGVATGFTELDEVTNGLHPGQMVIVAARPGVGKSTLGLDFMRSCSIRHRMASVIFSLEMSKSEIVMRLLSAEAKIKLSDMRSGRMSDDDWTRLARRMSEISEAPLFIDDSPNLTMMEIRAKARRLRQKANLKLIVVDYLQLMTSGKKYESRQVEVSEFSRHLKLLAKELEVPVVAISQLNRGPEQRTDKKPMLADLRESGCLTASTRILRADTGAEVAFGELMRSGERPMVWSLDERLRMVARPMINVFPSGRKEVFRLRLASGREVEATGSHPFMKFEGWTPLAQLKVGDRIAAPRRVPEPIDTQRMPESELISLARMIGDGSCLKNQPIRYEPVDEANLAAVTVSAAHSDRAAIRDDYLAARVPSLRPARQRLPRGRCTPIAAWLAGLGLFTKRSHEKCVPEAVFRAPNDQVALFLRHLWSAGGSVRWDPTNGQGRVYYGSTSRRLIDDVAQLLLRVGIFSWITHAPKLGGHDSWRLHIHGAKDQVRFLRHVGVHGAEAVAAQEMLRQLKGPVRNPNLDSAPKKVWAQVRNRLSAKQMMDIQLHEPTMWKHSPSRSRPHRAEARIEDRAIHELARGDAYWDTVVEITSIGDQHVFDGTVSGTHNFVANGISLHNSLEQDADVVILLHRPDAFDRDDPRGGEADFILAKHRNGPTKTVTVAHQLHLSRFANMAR

[21] = target: T5, Protein RecA (Mycobacterium tuberculosis, UniProt P9WHJ3); assay: Fluorescence Cell-Free Homogeneous Dose Retest to Identify Inhibitors of RecA-Intein Splicing Activity. [Related pubchem assays (depositor defined):AID2097, AID2223, AID489010, AID492950]; type: functional
T5 sequence (P9WHJ3 whole entry): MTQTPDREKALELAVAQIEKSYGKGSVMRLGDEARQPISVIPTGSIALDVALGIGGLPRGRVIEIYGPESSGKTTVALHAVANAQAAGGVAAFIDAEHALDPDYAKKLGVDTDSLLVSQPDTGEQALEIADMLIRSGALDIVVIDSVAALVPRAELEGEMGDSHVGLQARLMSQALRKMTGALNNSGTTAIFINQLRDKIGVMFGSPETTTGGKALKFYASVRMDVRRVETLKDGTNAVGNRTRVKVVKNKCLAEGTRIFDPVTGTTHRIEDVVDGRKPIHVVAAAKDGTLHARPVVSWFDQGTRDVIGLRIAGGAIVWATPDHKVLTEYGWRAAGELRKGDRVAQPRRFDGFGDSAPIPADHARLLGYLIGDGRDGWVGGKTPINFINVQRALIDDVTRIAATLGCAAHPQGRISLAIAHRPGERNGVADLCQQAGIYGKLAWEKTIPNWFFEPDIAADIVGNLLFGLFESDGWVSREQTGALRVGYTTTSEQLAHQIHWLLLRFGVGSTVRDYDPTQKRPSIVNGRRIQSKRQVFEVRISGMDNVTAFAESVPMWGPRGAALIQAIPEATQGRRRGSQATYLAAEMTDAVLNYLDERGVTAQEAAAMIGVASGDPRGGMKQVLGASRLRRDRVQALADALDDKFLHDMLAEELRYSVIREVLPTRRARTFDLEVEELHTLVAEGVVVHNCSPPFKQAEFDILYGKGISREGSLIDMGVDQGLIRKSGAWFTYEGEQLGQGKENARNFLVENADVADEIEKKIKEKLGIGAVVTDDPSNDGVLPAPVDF

T1 sequence (P11940 whole entry, the tested form may be a part): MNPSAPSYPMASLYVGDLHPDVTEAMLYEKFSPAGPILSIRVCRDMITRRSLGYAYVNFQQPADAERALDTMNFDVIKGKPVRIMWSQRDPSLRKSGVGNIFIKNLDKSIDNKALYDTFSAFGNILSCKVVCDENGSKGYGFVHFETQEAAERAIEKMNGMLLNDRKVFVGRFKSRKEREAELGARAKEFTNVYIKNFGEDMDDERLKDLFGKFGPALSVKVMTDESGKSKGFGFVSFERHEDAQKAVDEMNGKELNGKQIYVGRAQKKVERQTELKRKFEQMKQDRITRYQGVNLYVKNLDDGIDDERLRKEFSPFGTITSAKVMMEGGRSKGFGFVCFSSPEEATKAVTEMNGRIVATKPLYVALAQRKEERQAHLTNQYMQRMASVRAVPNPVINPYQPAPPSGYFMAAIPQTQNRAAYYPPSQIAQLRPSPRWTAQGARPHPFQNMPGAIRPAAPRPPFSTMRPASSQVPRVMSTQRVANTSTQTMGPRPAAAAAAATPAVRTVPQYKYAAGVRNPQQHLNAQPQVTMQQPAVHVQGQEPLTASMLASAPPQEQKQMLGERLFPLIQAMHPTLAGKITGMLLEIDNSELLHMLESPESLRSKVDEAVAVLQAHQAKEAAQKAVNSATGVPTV

COc1ccc(NS(=O)(=O)c2ccc(N3CCCC3)c(NC(S)=Nc3ccc(SC(F)F)cc3)c2)cc1
IC50 [1]: > 66 µM (inactive)
IC50 [2]: > 66 µM (inactive)
AC50 [3]: 16.4 µM (active)

CCN(C[C@H]1N[C@@](C)(C(=O)OC)[C@H]2C(=O)N(Cc3ccccc3)C(=O)[C@@H]12)S(=O)(=O)c1ccc(C(C)(C)C)cc1
AC50 [4]: 5.72 µM (active)
AC50 [5]: 5.16 µM (active)
AC50 [6]: 6.31 µM (active)
AC50 [7]: 6.14 µM (active)

O=C(Nc1cc(Cl)cc(Cl)c1)C1CCC(=O)N1Cc1ccccc1Cl (stereo not given)
AC50 [4]: 7.12 µM (active)
AC50 [5]: 19.3 µM (active)
AC50 [6]: 59.2 µM (active)
AC50 [7]: 8.36 µM (active)

Cc1cccc(-c2nc3ccccc3c(=O)n2NC(=O)c2cccs2)c1
IC50 [8]: 44.1 µM (active)

NNC(=O)c1cccc(COc2ccc3c(c2)CCC3)c1
AC50 [9]: 2.12 µM (active)

CCc1nc2ccc(C(=O)N3CCN(C(=O)c4ccco4)CC3)cn2c1N(C)Cc1ccc(OC)cc1
AC50 [4]: 2.72 µM (active)
AC50 [5]: 7.5 µM (active)
AC50 [6]: 10.4 µM (active)
AC50 [7]: 13.5 µM (active)

Cc1csc(N=Nc2ccc(N(C)C)cc2)[n+]1[O-]
AC50 [9]: 2.84 µM (active)

COc1cccc(/C=C2\SC(=S)N(CCC(=O)NCCc3ccc(O)cc3)C2=O)c1
CC50 [10]: 16.1 µM (active)
AC50 [3]: 4.57 µM (active)

CCn1c(COc2ccc(Cl)cc2)nnc1SCc1nc2ccccc2[nH]1
AC50 [4]: 6.83 µM (active)
AC50 [5]: 12 µM (active)
AC50 [6]: 23.5 µM (active)
AC50 [7]: 5.17 µM (active)

NNc1nc(-c2ccccc2)cc(-c2ccccc2)n1
EC50 [11]: > 120 µM (not active)
EC50 [12]: > 120 µM (not active)
EC50 [13]: > 40 µM (inactive)
EC50 [14]: > 120 µM (not active)
IC50 [15]: 13 µM (active)

O=C(CN1CCC(NC(=O)c2ccccc2F)CC1)Nc1ccc2c(c1)OCO2
IC50 [8]: 34 µM (active)

OC1(c2cccc(C(F)(F)F)c2)CCN(c2[nH]cnc3c4cc(F)ccc4nc2-3)CC1
AC50 [9]: 7.02 µM (active)
AC50 [16]: 1.87 µM (active)
AC50 [17]: 46 µM (active)
AC50 [18]: 6.11 µM (active)

Cc1ccc(/C=C/C(=O)NCc2ccccn2)o1
IC50 [19]: 6.32 µM (active)

CC1CCN(c2ccc(-c3ccc(NC(=O)C(F)(F)F)cc3)nn2)CC1
AC50 [9]: 2.7 µM (active)

Cc1cccc(NC(=S)N/N=C2/CCCCc3ccccc32)c1
EC50 [13]: > 40 µM (inactive)
IC50 [15]: > 40 µM (not active)
AC50 [20]: 34 µM (active)
EC50 [21]: > 380 µM (inactive)

O=C(c1ccc2c(c1)OCO2)N(CC1CCCO1)C1(C(=O)NC2CCCCC2)CCCCC1 (stereo not given)
AC50 [4]: 5.73 µM (active)
AC50 [5]: 4.79 µM (active)
AC50 [6]: 9.67 µM (active)
AC50 [7]: 13 µM (active)

COc1cc(/C=C2\SC(=S)N(CC(=O)Nc3ccc(O)cc3)C2=O)cc(OC)c1OC
IC50 [19]: 3.74 µM (active)
